Values quoted from earlier work in patent publication US20080160064A1, “DEVICES AND METHODS FOR […]” (priority 2006, published 2008).

Molecular target: hemoglobin (Homo sapiens, UniProt P68871+P69905)
Conditions: higher affinity than oxygen

Sequence of hemoglobin (P69905 2-142 limits assumed): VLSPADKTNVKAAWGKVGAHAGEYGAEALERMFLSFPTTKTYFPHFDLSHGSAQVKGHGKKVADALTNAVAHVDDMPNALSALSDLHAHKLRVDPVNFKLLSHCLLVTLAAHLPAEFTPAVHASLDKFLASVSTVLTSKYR
Sequence of hemoglobin (P68871 2-147 limits assumed): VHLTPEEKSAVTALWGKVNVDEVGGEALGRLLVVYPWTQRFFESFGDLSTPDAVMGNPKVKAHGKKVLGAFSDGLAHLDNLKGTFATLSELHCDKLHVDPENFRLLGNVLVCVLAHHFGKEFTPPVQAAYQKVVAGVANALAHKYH

In the case of `[C-]#[O+]` [CO, Carbon monoxide], the “affinity for hemoglobin relative to oxygen” value is listed as about 200 ×.
